Assay results as given in patent US8329751B2, “Compounds having aryl-sulphonamidic structure useful as metalloproteases inhibitors” (Bracco Imaging S.p.A., priority 2007, dated 2012).

Assays:
MMP-2 = biological target: T1, MMP-2 (Homo sapiens, UniProt P08253); assay: MMP inhibition assay, fluorogenic substrate FS-6, MMP-2; format: biochemical; conditions: substrate FS-6 2 μM; enzyme and inhibitor incubated 4 h at 25° C.
T1 construct: supplied by Prof; Gillian Murphy (Department of Oncology, University of Cambridge, UK); not a commercial purchase
T1 sequence (P08253 110-660): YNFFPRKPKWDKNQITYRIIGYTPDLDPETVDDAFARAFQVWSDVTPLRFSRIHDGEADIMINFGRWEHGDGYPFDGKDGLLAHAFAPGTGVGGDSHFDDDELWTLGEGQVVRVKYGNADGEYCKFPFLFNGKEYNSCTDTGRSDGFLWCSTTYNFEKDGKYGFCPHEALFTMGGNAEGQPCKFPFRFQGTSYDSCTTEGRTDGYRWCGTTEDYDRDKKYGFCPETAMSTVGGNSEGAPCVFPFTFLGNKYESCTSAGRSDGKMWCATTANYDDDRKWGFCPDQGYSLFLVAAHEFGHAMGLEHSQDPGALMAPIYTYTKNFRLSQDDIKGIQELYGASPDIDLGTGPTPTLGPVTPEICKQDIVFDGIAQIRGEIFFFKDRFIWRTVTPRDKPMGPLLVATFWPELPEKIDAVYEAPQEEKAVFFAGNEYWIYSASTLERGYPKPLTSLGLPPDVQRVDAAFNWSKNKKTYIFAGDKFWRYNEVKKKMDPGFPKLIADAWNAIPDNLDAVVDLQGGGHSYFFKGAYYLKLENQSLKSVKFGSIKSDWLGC
Experimental: (§1) As reported therein, the inhibitory activity of the compounds of the invention was evaluated on the known fluorogenic substrate (Mca-Lys-Pro-Leu-Gly-Leu-Dpa-Ala-Arg-NH2), shortly referred to as FS-6 (see, as a reference, U. Neumann, Analytical Biochem. 2004, 328, 166-173).
(§2) Recombinant human pro-MMP-2 was supplied by Prof. Gillian Murphy (Department of Oncology, University of Cambridge, UK), while pro-MMP-13 and pro-MMP-14 were purchased from Calbiochem. […] Pro-MMP-14 was activated with trypsin 5 μg/ml for 15 min at 37° C. followed by soybean trypsin inhibitor (SBTI) 23, μg/ml. For assay measurements, the inhibitor stock solutions (DMSO, 100 mM) were further diluted, at seven different concentrations (0.01 nM-100 μM) for each MMP in the fluorimetric assay buffer (FAB: Tris 50 mM, pH=7.5, NaCl 150 mM, CaCl2 10 mM, Brij 35 0.05% and DMSO 1%). Activated enzyme (final concentration 2.9 nM for MMP-2, 1 nM for MMP-14, 0.33 nM for MMP-13) and inhibitor solutions were incubated in the assay buffer for 4 h at 25° C. After the addition of 200 μM solution of the fluorogenic substrate Mca-Lys-Pro-Leu-Gly-Leu-Dpa-Ala-Arg-NH2 (Bachem) (see, for a reference, Neumann, U.; Kubota, H.; Frei, K.; Ganu, V.; Leppert, D. Anal. Biochem. 2004, 328, 166) for all of the enzymes in DMSO (final concentration 2 μM), the hydrolysis was monitored every 15 sec. for 20 min recording the increase in fluorescence (λex=325 nm, λem=395 nm) using a Molecular Device SpectraMax Gemini XS plate reader.
(§3) The assays were performed in triplicate, in a total volume of 200 μl per well, in 96-well microtitre plates (Corning, black, NBS). Control wells lack inhibitor. The MMP inhibition activity was expressed in relative fluorescent units (RFU). Percent of inhibition was calculated from control reactions without the inhibitor. IC50 was determined using the formula: Vi/Vo=1/(1+[I]/IC50), where V, is the initial velocity of substrate cleavage in the presence of the inhibitor at concentration [I] and Vo is the initial velocity in the absence of the inhibitor. Results were analyzed using SoftMax Pro software and GraFit software.

MMP-13 = MMP-13 (Homo sapiens, UniProt P45452); assay: MMP inhibition assay, fluorogenic substrate FS-6, MMP-13; format: biochemical; conditions: substrate FS-6 2 μM; enzyme and inhibitor incubated 4 h at 25° C.
Experimental: as §1, §2, §3

MMP-14 = biological target: T2, MMP-14 (Homo sapiens, UniProt P50281); assay: MMP inhibition assay, fluorogenic substrate FS-6, MMP-14; format: biochemical; conditions: substrate FS-6 2 μM; enzyme and inhibitor incubated 4 h at 25° C.
T2 construct: purchased Calbiochem
Experimental: as §1, §2, §3

HUVEC [1] = assay: HUVEC growth assay (crystal violet); format: cell-based, human
Experimental: (§4) Compound (2), as a representative compound of the invention, was tested in an in vivo assay to evaluate its inhibitory activity on cancer cells. In particular, HUVEC cultures were purchased from Cascade Biologics (Portland, Oreg.) and cultured in gelatin-coated flasks using M199, 10% FCS (Fetal Calf Serum, Seromed, Milan, Italy) supplemented with FGF (Fibroblast Growth Factor, PeproTech, Inc., Rocky Hill, N.J.) (1 μg aFGF (acidic Fibroblast Growth Factor)+1 μg bFGF (basic Fibroblast Growth Factor)/100 ml medium), EGF (Epidermal Growth Factor) (1 μg/100 ml medium), heparin (10 mg/100 ml medium), (ICN Pharmaceuticals, Inc., Casta Mesa, Calif.), hydrocortisone (Sigma Chemical Co.) (0.1 mg/100 ml medium).
At day 0 cells were plated in 96 microwell plates at 1000 cells in 200 μl of complete culture medium. The inhibitor was added to the cells at different concentrations (10, 100 μM). HUVEC were quantified at 24, 48 and 72 hrs. Indirect optical density (OD) quantification was obtained fixing/staining the cells for 20 minutes with a crystal violet solution [see, for a reference, Fassina, G. et al., Clin Cancer Res, (2004) 10, 4865-73].

HUVEC [2] = assay: pro-apoptotic activity on HUVEC; format: cell-based, human
HUVEC [3] = assay: HUVEC chemoinvasion in Boyden chambers; format: cell-based, human; conditions: 100 μM, 5 hours
Experimental: as §4, with “N.J.) (1 μg aFGF” left out, “[…].),” for “Casta Mesa, Calif.),”, “medium). HUVEC invasion was assessed in Boyden chambers (Costar) using serum-free fibroblast conditioned medium (FB-CM) as chemoattractants. Cells were treated with the inhibitor at the indicated doses and incubated at 37° C. for 5 hours in humidified atmosphere. Cell invasion was assessed by densitometric scanning of whole filter surface. Each test was performed in triplicate and repeated three times [see, for a reference, Albini, A., et al., Int. J. Dev. Biol., (2004), 48, 563-71].” for “medium).”

Compound	IC50 (MMP-2) [nM]	IC50 (MMP-13) [nM]	IC50 (MMP-14) [nM]	cell growth inhibition as compared to untreated controls (HUVEC [1]; 10 and 100 μM, 24, 48 and 72 hrs)	inhibition at 100 µM (HUVEC [1]; Homo sapiens, 100 μM, starting from 48 hours of treatment, read-out: cell growth inhibition) [%]	induction of programmed cell death (HUVEC [2]; at 48 hours)	pro-apoptotic activity (HUVEC [2]; high dose (100 μM))	inhibitory activity on endothelial cell migration through a reconstituted basement membrane (HUVEC [3])
CC(C)ON([C@H](CCNC(=O)c1ccccc1)C(=O)NO)S(=O)(=O)c1ccc(-c2ccccc2)cc1 [Compound 1b, (R)—N-(4-(hydroxyamino)-3-(N-isopropoxybiphenyl-4-ylsulfonamido)-4-oxobutyl)benzamide]	1.48 ± 0.17	4.6 ± 0.1	94					
CC(C)ON([C@H](CCNS(C)(=O)=O)C(=O)NO)S(=O)(=O)c1ccc(-c2ccccc2)cc1 [Compound 1c, (R)—N-hydroxy-2-(N-isopropoxybiphenyl-4-ylsulfonamido)-4-(methylsulfonamido)butanamide]	0.98 ± 0.12	2.2 ± 0.3	95.5 ± 4.5					
CC(=O)NCC[C@H](C(=O)NO)N(OC(C)C)S(=O)(=O)c1ccc(-c2ccccc2)cc1 [Compound 1d, (R)-4-acetamido-N-hydroxy-2-(N-isopropoxybiphenyl-4-ylsulfonamido)butanamide]	0.33 ± 0.02	0.68 ± 0.1	41.1 ± 1.16					
CC(C)ON([C@H](CCNC(=O)Cc1ccccc1)C(=O)NO)S(=O)(=O)c1ccc(-c2ccccc2)cc1 [Compound 1e, (R)—N-hydroxy-2-(N-isopropoxybiphenyl-4-ylsulfonamido)-4-(2-phenylacetamido)butanamide]	1.43 ± 0.1	1.4 ± 0.1	80.7 ± 5.4					
COc1ccc(-c2ccc(S(=O)(=O)N(OC(C)C)[C@H](CCNC(C)=O)C(=O)NO)cc2)cc1 [Compound 1f, (R)-4-acetamido-N-hydroxy-2-(N-isopropoxy-4′-methoxybiphenyl-4-ylsulfonamido)butanamide]	0.13 ± 0.03	0.58 ± 0.04	23.5 ± 2.2					
COc1ccc(-c2ccc(S(=O)(=O)N(OC(C)C)[C@H](CCNC(=O)Cc3ccccc3)C(=O)NO)cc2)cc1 [Compound 1g, (R)—N-hydroxy-2-(N-isopropoxy-4′-methoxybiphenyl-4-ylsulfonamido)-4-(2-phenylacetamido)butanamide]	0.37 ± 0.06	0.25 ± 0.02	24.7 ± 2.2					
COc1ccc(-c2ccc(S(=O)(=O)N(OCCOCCN3CCNCC3)[C@H](CCNC(=O)OCc3ccccc3)C(=O)NO)cc2)cc1 [Compound 1j]	0.3 ± 0.03	0.2 ± 0.01	27 ± 1					
COc1ccc(-c2ccc(S(=O)(=O)N(OC(C)C)[C@H](CCN3C(=O)c4ccccc4C3=O)C(=O)NO)cc2)cc1 [Compound 2, (R)-4-(1,3-dioxoisoindolin-2-yl)-N-hydroxy-2-(N-isopropoxy-4′-methoxybiphenyl-4-ylsulfonamido)butanamide]	0.67 ± 0.06	0.19 ± 0.01	3.9 ± 0.18	time and dose dependent cell growth inhibition	100	ability to induce programmed cell death	some pro-apoptotic activity	significant inhibitory activity
CC(C)ON([C@H](CCNC(=O)OCc1ccccc1)C(=O)NO)S(=O)(=O)c1ccc(-c2ccccc2)cc1 [Reference Compound (5b), reference compound]	8.4 ± 0.1	4.4 ± 0.5	240 ± 19					
